Data on 7 compounds can be found in patent US10882826B2, “Quinolinone or quinazolinone comprising antibiofilm compositions, compounds and methods and uses relating thereto” (University College Cork—National University of Ireland, priority 2015, dated 2021).

Series [1] concerns A. fumigatus CFBRC3 biofilm. Kind of series: A. fumigatus biofilm assay, clinical source CFBRC3. The note with it: biofilm from clinical source CFBRC3. It counts as cell-based, Aspergillus fumigatus. The procedure: (§1) A. fumigatus Af293 was grown on SDA in 100 ml cell culture flasks at 37° C. for 3-4 days. Conidia were harvested by flooding the surface of the agar plates with 5 ml PBS (Oxoid) containing 0.025% (v/v) Tween 20 and gently moving the liquid over the surface of the fungal lawn. The conidial suspension was transferred into a 25 ml sterile container and conidia were counted using a Neubauer haemocytometer and light microscope. Conidia were adjusted to the required concentration in RPMI 1640 (Sigma) buffered to pH 7.0 with 0.165 M MOPS immediately prior to biofilm formation analysis.
(§2) To assess biofilm formation, counted A. fumigatus spores (1×10^5) in MOPS buffered RPMI 1640 were inoculated into 24- and 96-well plates and grown overnight in the presence of 100 μM HHQ, PQS and the test compounds. After 24 hrs, the media was removed and the biofilm washed twice with distilled water after which 0.1% crystal violet (CV) was added to each well and allowed to stand for 1 hr at room temperature. The crystal violet was removed and all wells washed in a water bath by inversion. Ethanol was added to each well to solubilise biofilms after which samples were read on a spectrophotometer at Abs595 nm.
(§3) The above experiments were carried out using biofilms grown from laboratory sources of A. fumigatus. The experiments were repeated to test some compounds against biofilms grown from three different clinical sources of A. fumigatus (CFBRC1, CFBRC2 and CFBRC3. The results are shown in table 8: […]

In a further series the test system is mammalian cells. The series can be described thus: Cytotoxicity towards mammalian cells (summary statement). It counts as cell-based. The method, then: Lactate dehydrogenase (LDH) release from IB3 lung epithelial cells was assayed as a measure of cytotoxicity using an LDH colorimetric kit (Roche) according to manufacturers' instructions. Briefly, IB3-1 cells were seeded onto 96 well plates and treated with methanol (control) and test compounds (100 μM). Following 16 hr incubation at 37° C. and 5% CO2, supernatants were removed and added to catalyst reaction mixture in a fresh plate and further incubated at 37° C. and 5% CO2 for 30 mins to allow for colour development. After this period, the plate was analysed on an ELISA plate reader at OD490 nm. Cytotoxicity was expressed as a percentage of cells treated with 0.1% (v/v) Triton (100% cytotoxicity). The results are detailed in table 3:
The above experiments were repeated, testing some compounds against further cell lines (A549, DU145 and HeLa).

The subject of series [2] is A. fumigatus Af293 biofilm. Kind of series: A. fumigatus biofilm assay (crystal violet). It counts as cell-based, Aspergillus fumigatus. The note with it: for Relative absorbance at 595 nm compared to methanol control, Mean: A. fumigatus Af293 biofilm, 100 μM, 24 hrs, crystal violet; for effectiveness against fungal biofilms formed by Aspergillus fumigatus (in words): summary statement. The method, then: A. fumigatus Af293 was routinely grown on Sabouraud dextrose agar (SDA) in 100 ml cell culture flasks at 37° C. for 3-4 days until a lawn of fungal growth was observed.
as §1, §2

Series [3] deals with A. fumigatus CFBRC2 biofilm. The series can be described thus: A. fumigatus biofilm assay, clinical source CFBRC2. It counts as cell-based, Aspergillus fumigatus. The note with it: biofilm from clinical source CFBRC2. The procedure: as §1, §2, §3
Series [4] concerns A. fumigatus CFBRC1 biofilm. Kind of series: A. fumigatus biofilm assay, clinical source CFBRC1. The note with it: biofilm from clinical source CFBRC1. It counts as cell-based, Aspergillus fumigatus. The method, then: as §1, §2, §3
The next series deals with Pseudomonus aeruginosa. The series can be described thus: Virulence of Pseudomonas aeruginosa (summary statement). It counts as cell-based. The note with it: unlike HHQ and PQS. The method, then:
The virulence of compounds B1, B2, C2, C3, C4, C5, C6, C8 and C11 towards P. aeruginosa was assessed using the following method:
P. aeruginosa strains were cultured as described above for 24 hr, with the addition of test compounds (10 μM). Cultures were centrifuged at 4000 rpm for 10 minutes and the cell free supernatant (5 ml) removed. Chloroform (3 ml) was added, and mixed by vortex. After centrifugation at 4000 rpm for 5 mins, the lower aqueous phase was transferred to 0.2 M HCl (2 ml). Samples were mixed by vortex and centrifuged at 4000 rpm for 5 mins to separate the phases. An aliquot of the top phase (1 ml) was removed and spectrophotmetrically analysed at OD570 nm. Phenazine production was calculated using the following formula: OD570 nm×2×17.072 and the units expressed in μg/ml. […]

The subject of series [5] is P. aeruginosa PAO1 pqsA-pqsA-lacZ strain. The series can be described thus: Phenazine extraction (phenazine production). The note with it: for Phenazine, Mean: PAO1 pqsA-pqsA-lacZ strain, test compounds 10 μM, 24 hr, methanol control 0.080; for Normalised Phenazine, Mean: normalized to the methanol control (=1), n>=2. It counts as cell-based. The method, then:
(§4) P. aeruginosa strains, PAO1 and pqsA mutant, containing the chromosomally inserted pqsA-lacZ promoter fusion on plasmid pUC18-mini-Tn7, were sub-cultured from glycerol stocks onto LB agar plates, supplemented with Carbenicillin (200 μg/ml) and X-gal (40 μg/ml), and incubated at 37° C. overnight. Single colonies were inoculated into LB broth (20 ml), supplemented with Carbenicillin (200 μg/ml), and incubated at 37° C., shaking at 180 rpm overnight. For subsequent experiments, the OD600 nm was recorded and a starting OD600 nm of 0.02 was inoculated into fresh LB broth, supplemented with Carbenicillin (200 μg/ml) and incubated at 37° C., shaking at 180 rpm.
P. aeruginosa strains were cultured as described above for 24 hr, with the addition of test compounds (10 μM). Cultures were centrifuged at 4000 rpm for 10 minutes and the cell free supernatant (5 ml) removed. Chloroform (3 ml) was added, and mixed by vortex. After centrifugation at 4000 rpm for 5 mins, the lower aqueous phase was transferred to 0.2 M HCl (2 ml). Samples were mixed by vortex and centrifuged at 4000 rpm for 5 mins to separate the phases. An aliquot of the top phase (1 ml) was removed and spectrophotmetrically analysed at OD570 nm. Phenazine production was calculated using the following formula: OD570 nm×2×17.072 and the units expressed in μg/ml.
(§5) The phenazine production levels and Miller units in the PAO1 pqsA-pqsA-lacZ strain are detailed in table 5.
(§6) The virulence of compounds B2, C13 and C15 towards P. aeruginosa was assessed using an analogous method.

Series [6] has as its system pqsA-lacZ promoter fusion. The series can be described thus: Promoter fusion based expression analysis (pqsA-lacZ, Miller units). It counts as cell-based, P. aeruginosa. The note with it: for Miller Units, Mean: PAO1 pqsA-pqsA-lacZ strain, 100 μM, overnight, methanol control 12287; for Normalised Miller Units, Mean: normalized to the methanol control (=1), n>=2. The method, then:
as §4
Promoter fusion analyses were performed in a 96-well format. Briefly, overnight cultures of wild-type PAO1 pqsA-lacZ (pLP0996) and mutant strain PAO1 pqsA^− pqsA-LacZ were diluted to OD600 nm=0.02 in LB. Test compounds at 100 μM final concentration were added, mixed, aliquoted into 96 well plates and incubated overnight at 37° C. with shaking. The next day, OD600 nm values were recorded in a plate reader. Aliquots of cells (0.02 ml) were permeabilised [100 mM dibasic sodium phosphate (Na2HPO4), 20 mM KCl, 2 mM MgSO4, 0.8 mg/mL CTAB (hexadecyltrimethylammonium bromide), 0.4 mg/mL sodium deoxycholate, 5.4 μL/mL beta-mercaptoethanol] and added to substrate solution [60 mM Na2HPO4, 40 mM NaH2PO4, 1 mg/mL o-nitrophenyl-β-D-Galactoside (ONPG), 2.7 μL/mL β-mercaptoethanol]. The kinetics of colour development was monitored and the reactions were stopped using 1M NaCO3. OD420 nm were recorded as above. Miller units were calculated using the following equation; 1000×[OD420 nm/(OD600 nm)×0.02 ml×reaction time (mins)].
as §5, §6

Series [7] relates to C. albicans strain SC5314 biofilm. The series can be described thus: XTT metabolic assay of C. albicans biofilm. It counts as cell-based, Candida albicans. The note with it: C. albicans biofilm, test compound 100 μM, 24 hr; MeOH control 0.647, untreated 0.851. The procedure: C. albicans strain SC5314 was sub-cultured from 15% (v/v) glycerol stocks at −80° C. onto Yeast Peptone Dextrose (YPD) medium [1% (w/v) yeast extract, 2% (w/v) peptone and 2% (w/v) dextrose] and incubated at 30° C. overnight.
The test compounds in desiccated form were re-suspended in Methanol to create a 10 mM stock. […]
The ability of some of the compounds detailed in example 1 to disrupt Candida albicans was tested using Confocal Scanning Laser Microscopy and an XTT Metabolic Assay. The XTT assay is a commonly used quantitative method assessing Candida biofilm mass and growth often in response to novel drug therapies.
C. albicans biofilm formation was carried out in 96 well plates by a method of the prior art. Briefly, C. albicans was inoculated into Yeast Nitrogen Base [10% (w/v)] and glucose/maltose [10% (w/v)] and incubated overnight at 30° C. Seeding densities for all subsequent experiments (N=3) were OD600=0.05. Cells were grown in Yeast Nitrogen Base supplemented with 1 M Phosphate buffer and acetyl-D-glucosamine (YNB-NP) along with appropriate volumes of test compound to provide the desired concentration. Cells were cultured in 96 well plates for 1 hr at 37° C. to facilitate yeast attachment. After this incubation, the supernatants were aspirated, the wells washed twice with YNB-NP media, and fresh media with the same concentration of test compound added to the appropriate wells. The plate was incubated for 24 hr at 37° C. The next day, the cultures were aspirated and the wells washed once with YNB-NP media.
C. albicans biofilm quantification was carried out in 96 well plates using a semi-quantitative Tetrazolium salt, 2,3-bis-(2-methoxy-4-nitro-5-sulfophenyl)-2H tetrazolium-5-carboxanilide inner salt (XTT) reduction assay (Hawser, Tunney et al, Antimicrob Agents Chemother. 2004 May; 48(5):1879-81). XTT (0.01 g) was dissolved in sterile water (20 ml) and filter sterilized. 10 μl of Menadione dissolved in Acetone was added to the XTT solution, just before use. The XTT-Menadione Solution (100 μl) was added to each well. The plate was incubated in the dark at 37° C. for up to 2 hr to allow for colour development. The OD492 nm was recorded for each well. Experiments were repeated at least three times, with at least eight technical replicates.
Experiments were first carried out using the test compound at concentration of 100 μM.

Each structure is given as a SMILES string.

As to `CCCCCCCc1cc(=O)c2cc(F)ccc2[nH]1` [Compound C14], the “Relative absorbance compared to MeOH (=1), Mean” value (“Relative absorbance … (=1), Mean” for short) in series [1] is 0.501; in [3], 0.823; in series [4], 0.550. The “cytotoxicity towards mammalian cells (in words)” value in the series with mammalian cells is given as “reduced cytotoxicity”. In [2], the “Relative absorbance at 595 nm compared to methanol control, Mean” value (shortened to “Relative absorbance at 595 nm”) is 0.42.

In the case of `CCCCCCCc1cc(=O)c2ccc(OC)cc2[nH]1` [Compound C9], the “Relative absorbance … (=1), Mean” value in [1] is 0.439; in series [3], 0.484; in [4], 0.593. Besides, the “effect on virulence of Pseudomonus aeruginosa (in words)” value (“effect on virulence” for short) in the series with Pseudomonus aeruginosa is reported as “do not increase the virulence”. Also, the “cytotoxicity towards mammalian cells (in words)” value in the series with mammalian cells is given as “reduced cytotoxicity”. Moreover, in series [2], the “Relative absorbance at 595 nm” value amounted to 0.18. Also, in [2], the “effectiveness against fungal biofilms formed by Aspergillus fumigatus (in words)” value (“effectiveness” below) is “effective”.

`CCCCCCCc1cc(=O)c2cc(OC)ccc2[nH]1` [Compound C11]: the “Phenazine, Mean” value in series [5] stood at 0.432 µg/mL. In addition, the “effect on virulence” value with Pseudomonus aeruginosa is “do not increase the virulence”. Moreover, the “cytotoxicity towards mammalian cells (in words)” value in the series with mammalian cells was “reduced cytotoxicity”. Besides, the “Miller Units, Mean” value in series [6] was 12254 Miller Units. The “Absorbance at 492 nm, Mean (XTT)” value in series [7] is on record as 0.242.

Turning to `CCCCCCCc1cc(=O)c2cc(CCCCCC)ccc2[nH]1` [Compound C7], the “effect on virulence” value in the series with Pseudomonus aeruginosa was “do not increase the virulence”. In addition, in the series with mammalian cells, the “cytotoxicity towards mammalian cells (in words)” value was “reduced cytotoxicity”. Moreover, in [2], the “Relative absorbance at 595 nm” value turned out to be 0.27 and the “effectiveness” value is on record as “effective”.

Turning to `CCCCCCCc1cc(=O)c2cc(C(=O)OCC)ccc2[nH]1` [Compound C13], the “Relative absorbance … (=1), Mean” value in series [1] came out at 0.609; in series [3] it was 0.620; in series [4] it was 0.507. Further, the “Normalised Phenazine, Mean” value in series [5] is given as 0.747 ratio to methanol control. Further, the “effect on virulence” value in the series on Pseudomonus aeruginosa was “do not increase the virulence”. The “cytotoxicity towards mammalian cells (in words)” value in the series on mammalian cells is given as “reduced cytotoxicity”. Moreover, the “Normalised Miller Units, Mean” value in series [6] is on record as 0.3715. In addition, the “Relative absorbance at 595 nm” value in series [2] came out at 0.38. Besides, the “effectiveness” value in series [2] is listed as “effective”.

For the compound `CCCCCCCCCc1cc(=O)c2cc(OC)ccc2[nH]1` [Compound C8], the “Phenazine, Mean” value in series [5] is 0.205 µg/mL. For the same compound, the “effect on virulence” value with Pseudomonus aeruginosa is on record as “do not increase the virulence”. Also, the “cytotoxicity towards mammalian cells (in words)” value with mammalian cells was “reduced cytotoxicity”. In series [6], the “Miller Units, Mean” value is given as 11753 Miller Units. Also, in [2], the “Relative absorbance at 595 nm” value was found to be 0.47 and the “effectiveness” value was “effective”. In addition, the “Absorbance at 492 nm, Mean (XTT)” value in [7] worked out at 0.457.

For the compound `CCCCCCCc1cc(=O)c2c(C)cc(C)cc2[nH]1` [Compound C15], the “Relative absorbance … (=1), Mean” value in series [1] is 0.413; in series [3], 0.443; in [4], 0.518. Also, in series [5], the “Normalised Phenazine, Mean” value is 0.4984 ratio to methanol control. The “effect on virulence” value in the series with Pseudomonus aeruginosa is “do not increase the virulence”. Also, the “cytotoxicity towards mammalian cells (in words)” value in the series with mammalian cells is “reduced cytotoxicity”. In addition, the “Normalised Miller Units, Mean” value in [6] was determined as 0.4671. Moreover, in series [2], the “Relative absorbance at 595 nm” value is listed as 0.25. Further, in series [2], the “effectiveness” value is “effective”.
